For test [1], the target named is T1, HscFRS (Homo sapiens, UniProt Q9Y285).
T1 sequence (Q9Y285 1-508): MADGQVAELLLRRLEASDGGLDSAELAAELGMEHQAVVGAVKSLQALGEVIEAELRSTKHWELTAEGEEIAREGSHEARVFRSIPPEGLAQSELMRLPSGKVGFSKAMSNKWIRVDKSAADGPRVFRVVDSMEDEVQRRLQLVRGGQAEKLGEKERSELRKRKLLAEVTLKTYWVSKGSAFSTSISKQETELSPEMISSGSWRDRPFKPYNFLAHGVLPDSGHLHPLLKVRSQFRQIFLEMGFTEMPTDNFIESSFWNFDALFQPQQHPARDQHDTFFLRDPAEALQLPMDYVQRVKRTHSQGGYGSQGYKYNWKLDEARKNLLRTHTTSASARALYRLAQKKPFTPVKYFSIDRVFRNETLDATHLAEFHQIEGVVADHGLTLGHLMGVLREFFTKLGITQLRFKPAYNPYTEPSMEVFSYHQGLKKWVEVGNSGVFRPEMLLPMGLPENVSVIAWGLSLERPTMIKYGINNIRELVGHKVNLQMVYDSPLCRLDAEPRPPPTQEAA
T1 sequence (Q9NSD9 1-589 partner): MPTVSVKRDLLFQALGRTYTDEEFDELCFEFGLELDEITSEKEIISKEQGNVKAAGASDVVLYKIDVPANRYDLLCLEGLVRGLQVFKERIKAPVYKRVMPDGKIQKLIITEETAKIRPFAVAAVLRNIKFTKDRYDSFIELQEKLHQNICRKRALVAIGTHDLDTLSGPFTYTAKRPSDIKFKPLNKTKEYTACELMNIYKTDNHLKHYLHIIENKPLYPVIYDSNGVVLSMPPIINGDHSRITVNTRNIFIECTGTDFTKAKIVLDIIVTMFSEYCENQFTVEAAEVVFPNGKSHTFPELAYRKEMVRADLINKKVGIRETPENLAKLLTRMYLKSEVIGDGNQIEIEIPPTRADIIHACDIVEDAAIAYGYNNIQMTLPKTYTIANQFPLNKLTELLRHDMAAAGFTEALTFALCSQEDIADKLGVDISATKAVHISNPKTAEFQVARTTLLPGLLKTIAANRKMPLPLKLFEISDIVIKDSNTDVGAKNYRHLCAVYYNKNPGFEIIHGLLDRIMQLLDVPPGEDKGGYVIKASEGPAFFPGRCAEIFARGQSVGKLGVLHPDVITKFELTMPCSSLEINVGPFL
Put plainly: malachite green-based aminoacylation assay, HscFRS. It counts as biochemical. The settings on record: aminoacylation activity. An excerpt: (§1) EC50 assays were run as described in Int'l Pub Nos. WO 2015070204, WO 2018175385, and Kato, N, et al. Nature 538 (2016): 344-349, which are hereby incorporated by reference in its entirety. The inhibition of the aminoacylation activity of Pf (Plasmodium falciparum), Pv (Plasmodium vivax), Hs (Human) and Pf-Mut (L550V) cFRS enzymes by Compound 1 are illustrated in FIG. 1.
The enzymatic activity of purified heterodimeric PfcFRS using malachite green-based aminoacylation assays with substrates L-Phe and ATP was also measured as described in Cestari, I. et al., J Biomol. Screen. 18 (2013): 490-497 and Kato, N, et al. Nature 538 (2016): 344-349, which are hereby incorporated by reference in its entirety. […] Enzymatic reactions (50 μl total volume) were performed in clear, flat-bottomed, 96-well plates (Costar 96-well standard microplates). The reaction mixture was incubated for 2 h at 37° C. The reaction was stopped by adding 12.5 μl of malachite green solution to the reaction mixture and levels of inorganic phosphate (Pi) were detected after incubation of 5 min at room temperature. Absorbance was the measured at 620 nm using a Spectramax M2 (Molecular Devices). Reactions without FRS enzyme were performed as background controls, values of which were subtracted from the reactions with enzyme. […]

In test [2] the test system is Pf Dd2. Description: Pf Dd2 growth inhibition assay. In kind it is cell-based, Plasmodium falciparum.
Excerpt: as §1

We go through one compound from patent US20230279018A1, “AP[…] INHIBITION” (priority 2020, published 2023).

A word on the IC50: it is the concentration that inhibits the measured activity by half. A lower IC50 goes with inhibition by little substance. In general, EC50 refers to the concentration at which the effect is half-maximal. For the compound `COC[C@@H]1[C@H](c2ccc(C#Cc3ccccc3)cc2)[C@@H]2CN(C(=O)Nc3ccc(OC4CC4)cc3)C[C@@H](O)[C@@H](O)CN12` [Compound 1, (3S,4R,8R,9R,10S)—N-(4-cyclopropoxyphenyl)-3,4-dihydroxy-10-(methoxymethyl)-9-(4-(phenylethynyl)phenyl)-1,6-diazabicyclo[6.2.0]decane-6-carboxamide], in test [1], the half-inhibitory concentration (IC50) stood at 12 µM. Also, the EC50 in test [2] (Plasmodium falciparum, DD2, read-out: PfDd2 growth inhibition EC50) was < 0.001 µM. Also, the “efficacy by EC50 Pf Dd2 growth inhibition relative to comparator” value in test [2] (versus (3S,4R,8R,9S,10S)-10-((dimethylamino)methyl) analogue) is given as “three fold better efficacy”.
